Assay results: patent US4853467A, “Nitrogen containing derivatives of epipodophyllotoxin glucosides” (Bristol-Myers Company, priority 1987, dated 1989)
In brackets after ≈: the same amount, converted by molar mass.

Columns and labels:
B16-F10 murine melanoma = test: In vitro cytotoxicity assay, B16-F10 murine melanoma; format: cell-based; settings: two values per compound, four-fold serial dilution; for In vitro cytotoxicity IC50, B-16-F10: B16-F10 murine melanoma; for IC50: Mus musculus, B16-F10, B16-F10 murine melanoma, read-out: In vitro cytotoxicity IC50, B-16-F10
Method: (§1) The in vitro cytotoxicity assay involved growing various mammalian tumor cells, including human tumor cells, on microtitre plates employing established tissue culture methods. The concentration of each compound required to inhibit cell growth by 50% (IC50) was then determined by a four-fold serial dilution technique. The validity of the method has been supported by a report published in the "Proceedings of the American Association for Cancer Research", 1984, 25:1891 (Abst. No. 328). Tumor cells of the following types were employed for each compound tested: B16-F10 murine melanoma; Moser human colon; SW900 human lung and three human colon tumor cell lines namely HCT-116, HCT-VM, and HCT-VP, the latter two being resistant to teniposide (VM) and etoposide (VP), respectively. IC50 values less than 500 μg/ml are a positive indicator of antitumor activity. Table II presents IC50 values of various compounds of the present invention against the aforementioned cell lines.

HCT/VM34 = test: In vitro cytotoxicity assay, HCT/VM34 teniposide-resistant human colon tumor; format: cell-based; settings: HCT/VM34, resistant to teniposide, two values per compound, four-fold serial dilution; for IC50: Homo sapiens
Method: as §1

P388 murine leukemia = test: P388 Leukemia, antitumor activity against murine P388 leukemia; format: in vivo, murine (female CDF1 mice); settings: i.p. on days 5 and 8; 10^6 P388 cells i.p.; maximum effect over doses; >=125 considered significant; etoposide values in parentheses are positive control in same experiment
Method: Female CDF1 mice were implanted intraperitoneally with a tumor inoculum of 10^6 ascites cells of P388 murine leukemia and treated with various doses of a test compound; four mice were used for each dose level and ten were used as saline-treated control. The compounds were administered by intraperitoneal injection on days 5 and 8 (day 1 being the day of tumor implantation). Antitumor activity was expressed as % T/C which is the ratio of the median survival time (MST) of drug-treated group to the MST of saline-treated control group. A compound showing a % T/C value of 125 or greater is generally considered to have significant antitumor activity in the P388 test. The experiment lasted 31 days at the end of which time the number of survivors was noted. Table I presents the results of the above-described evaluation; only the maximum % T/C and the dose showing the maximum effect are reported.

HCT/VP35 = test: In vitro cytotoxicity assay, HCT/VP35 etoposide-resistant human colon tumor; format: cell-based; settings: two values per compound, four-fold serial dilution; for In vitro cytotoxicity IC50, HCT/VP35: HCT/VP35, resistant to etoposide; for IC50: Homo sapiens, HCT/VP35, HCT/VP35, resistant to etoposide
Method: as §1

HCT-116 = test: In vitro cytotoxicity assay, HCT-116 human colon tumor; format: cell-based; settings: two values per compound, four-fold serial dilution; for In vitro cytotoxicity IC50, HCT-116: HCT-116 human colon; for IC50: Homo sapiens, HCT-116, HCT-116 human colon
Method: as §1

SW900 human lung = test: In vitro cytotoxicity assay, SW900 human lung; format: cell-based; settings: two values per compound, four-fold serial dilution; for IC50: Homo sapiens, SW900, SW900 human lung; for In vitro cytotoxicity IC50, SW900: SW900 human lung
Method: as §1

Moser human colon = test: In vitro cytotoxicity assay, Moser human colon; format: cell-based; settings: two values per compound, four-fold serial dilution; for IC50: Homo sapiens
Method: as §1

[1] = system: small cell lung cancer, non-lymphocytic leukemia, and non-seminomatous testicular cancer; settings: AMA Drug Evaluation, 5th Edition, 1983; cited from earlier work

| SMILES | In vitro cytotoxicity IC50, B-16-F10 (B16-F10 murine melanoma) | IC50 (B16-F10 murine melanoma) | In vitro cytotoxicity IC50, HCT/VM34 (HCT/VM34) | IC50 (HCT/VM34) | Max % T/C (ratio of median survival time of drug-treated group to saline-treated control group) (P388 murine leukemia) | In vitro cytotoxicity IC50, HCT/VP35 (HCT/VP35) | IC50 (HCT/VP35) | In vitro cytotoxicity IC50, HCT-116 (HCT-116) | IC50 (HCT-116) | IC50 (SW900 human lung) | IC50 (Moser human colon) | In vitro cytotoxicity IC50, MOSER (Moser human colon) | activity in the treatment of cancers [1] | In vitro cytotoxicity IC50, SW900 (SW900 human lung) |
| --- | --- | --- | --- | --- | --- | --- | --- | --- | --- | --- | --- | --- | --- | --- |
| CNc1cc([C@@H]2c3cc4c(cc3[C@@H](O[C@@H]3O[C@@H]5CO[C@@H](C)O[C@H]5[C@H](O)[C@H]3O)[C@H]3COC(=O)[C@H]23)OCO4)cc(OC)c1O [Example 4, 3'-Desmethoxy-3'-methylamine etoposide] | 17.9 µg/mL | 13.9 µg/mL (≈ 23.7 µM) | 33 µg/mL | 23 µg/mL (≈ 39.1 µM) | 170% | 47 µg/mL | 40 µg/mL (≈ 68.1 µM) | 15.7 µg/mL | 16.2 µg/mL (≈ 27.6 µM) | 63 µg/mL (≈ 107 µM) | 56 µg/mL (≈ 95.3 µM) | 49 µg/mL |  |  |
| COc1cc([C@@H]2c3cc4c(cc3[C@@H](O[C@@H]3O[C@@H]5CO[C@@H](c6cccs6)O[C@H]5[C@H](O)[C@H]3O)[C@H]3COC(=O)[C@H]23)OCO4)cc(OC)c1O [teniposide] |  |  |  |  |  |  |  |  |  |  |  |  | active in the treatment of a variety of cancers including small cell lung cancer, non-lymphocytic leukemia, and non-seminomatous testicular cancer |  |
| COc1cc([C@@H]2c3cc4c(cc3[C@@H](O[C@@H]3O[C@@H]5CO[C@@H](C)O[C@H]5[C@H](O)[C@H]3O)[C@H]3COC(=O)[C@H]23)OCO4)cc(NCN2C(=O)CCC2=O)c1O [Example 13, 3'-Desmethoxy-3'-[(N-succinimido)methyl]amino etoposide] | 8.7 µg/mL | 5.5 µg/mL (≈ 8.03 µM) | 3.9 µg/mL | 2.7 µg/mL (≈ 3.94 µM) | 230% | 3.3 µg/mL | 3.4 µg/mL (≈ 4.97 µM) | 4.1 µg/mL | 3.6 µg/mL (≈ 5.26 µM) | 11 µg/mL (≈ 16.1 µM) | 12.3 µg/mL (≈ 18 µM) | 12.1 µg/mL |  | 8.6 µg/mL |
| COc1cc([C@@H]2c3cc4c(cc3[C@@H](O[C@@H]3O[C@@H]5CO[C@@H](C)O[C@H]5[C@H](O)[C@H]3O)[C@H]3COC(=O)[C@H]23)OCO4)cc(NC(=O)NCc2ccccc2)c1O [Example 11, 3'-Desmethoxy-3'-([[phenylmethyl)amino]carbonyl]amino etoposide] | 40 µg/mL | 44 µg/mL (≈ 62.3 µM) | 26 µg/mL | 24 µg/mL (≈ 34 µM) | 110% | 31 µg/mL | 30 µg/mL (≈ 42.5 µM) | 98 µg/mL | 58 µg/mL (≈ 82.1 µM) | 74 µg/mL (≈ 105 µM) | 89 µg/mL (≈ 126 µM) | 93 µg/mL |  | 84 µg/mL |
| COc1cc([C@@H]2c3cc4c(cc3[C@@H](O[C@@H]3O[C@@H]5CO[C@@H](C)O[C@H]5[C@H](O)[C@H]3O)[C@H]3COC(=O)[C@H]23)OCO4)cc(OC)c1O [etoposide] |  |  |  |  |  |  |  |  |  |  |  |  | active in the treatment of a variety of cancers including small cell lung cancer, non-lymphocytic leukemia, and non-seminomatous testicular cancer |  |
| COc1cc([C@@H]2c3cc4c(cc3[C@@H](O[C@@H]3O[C@@H]5CO[C@@H](C)O[C@H]5[C@H](O)[C@H]3O)[C@H]3COC(=O)[C@H]23)OCO4)cc(N=Cc2cccc([N+](=O)[O-])c2)c1O [Example 22, 3'-Desmethoxy-3'-[[(3-nitro)phenyl]methylene]amino etoposide] | 14.1 µg/mL | 10.9 µg/mL (≈ 15.4 µM) | 16.2 µg/mL | 21 µg/mL (≈ 29.7 µM) | 235% | 43 µg/mL | 36 µg/mL (≈ 50.9 µM) | 13.3 µg/mL | 17 µg/mL (≈ 24.1 µM) | > 250 µg/mL | > 250 µg/mL |  |  |  |
| C[C@@H]1OC[C@H]2O[C@@H](O[C@@H]3c4cc5c(cc4[C@@H](C4=CC(=O)C(=O)C(NC(=O)NCCCl)=C4)[C@H]4C(=O)OC[C@@H]43)OCO5)[C@H](O)[C@@H](O)[C@@H]2O1 [Example 29, 5'-Desmethoxy-5'-[[(2-chloroethyl)amino]carbonyl]amino etoposide 3',4'-ortho-quinone] | 38 µg/mL | 39 µg/mL (≈ 58.8 µM) | 53 µg/mL | 55 µg/mL (≈ 83 µM) | 135% | 79 µg/mL | 77 µg/mL (≈ 116 µM) | 46 µg/mL | 53 µg/mL (≈ 79.9 µM) | > 188 µg/mL | 71 µg/mL (≈ 107 µM) | 77 µg/mL |  |  |
| COc1cc([C@@H]2c3cc4c(cc3[C@@H](O[C@@H]3O[C@@H]5CO[C@@H](C)O[C@H]5[C@H](O)[C@H]3O)[C@H]3COC(=O)[C@H]23)OCO4)cc(N=Cc2ccsc2)c1O [Example 17, 3'-Desmethyoxy-3'-[(3-thienyl)methylene]amino etoposide] | 8.4 µg/mL | 6.7 µg/mL (≈ 10 µM) | 24 µg/mL | 23 µg/mL (≈ 34.4 µM) | 195% | 44 µg/mL | 31 µg/mL (≈ 46.4 µM) | 10.1 µg/mL | 12.3 µg/mL (≈ 18.4 µM) | 22 µg/mL (≈ 32.9 µM) | 45 µg/mL (≈ 67.4 µM) |  |  | 44 µg/mL |
| COc1cc([C@@H]2c3cc4c(cc3[C@@H](O[C@@H]3O[C@@H]5CO[C@@H](C)O[C@H]5[C@H](O)[C@H]3O)[C@H]3COC(=O)[C@H]23)OCO4)cc([N+](=O)[O-])c1O [Example 24, 3'-Desmethoxy-3'-nitro etoposide] | 50 µg/mL | 41 µg/mL (≈ 67.9 µM) | 82 µg/mL | 56 µg/mL (≈ 92.8 µM) | > 140% |  |  | 53 µg/mL | 43 µg/mL (≈ 71.2 µM) | 66 µg/mL (≈ 109 µM) | 92 µg/mL (≈ 152 µM) | 84 µg/mL |  | 90 µg/mL |
